# According to US11878965B2, “Inhibitors of peptidylarginine deiminases” (Gilead Sciences, Inc., priority 2020, dated 2024):
# Target: human PAD4 (Homo sapiens (Human), UniProt Q9UM07)
# Experiment: In Vitro PAD4 BAEE Biochemical Assay
# Conditions: human PAD4, BAEE substrate; 5 nM PAD4, 2 mM calcium chloride, 3 mM BAEE; geometric mean of multiple experiments
# Outline: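 Recombinant human PAD4 (His-SUMO tag removed, E. coli-expressed), 5 nM, preincubated with compound and 2 mM CaCl2 30 min at 25 °C in MOPS pH 7.6 with DTT; 3 mM BAEE added for 2 h at 25 °C, EDTA stop. Released ammonia detected by o-phthalaldehyde/DTT fluorescence (ex 405, em 535 nm).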
# Chain of human PAD4 (Q9UM07 2-663): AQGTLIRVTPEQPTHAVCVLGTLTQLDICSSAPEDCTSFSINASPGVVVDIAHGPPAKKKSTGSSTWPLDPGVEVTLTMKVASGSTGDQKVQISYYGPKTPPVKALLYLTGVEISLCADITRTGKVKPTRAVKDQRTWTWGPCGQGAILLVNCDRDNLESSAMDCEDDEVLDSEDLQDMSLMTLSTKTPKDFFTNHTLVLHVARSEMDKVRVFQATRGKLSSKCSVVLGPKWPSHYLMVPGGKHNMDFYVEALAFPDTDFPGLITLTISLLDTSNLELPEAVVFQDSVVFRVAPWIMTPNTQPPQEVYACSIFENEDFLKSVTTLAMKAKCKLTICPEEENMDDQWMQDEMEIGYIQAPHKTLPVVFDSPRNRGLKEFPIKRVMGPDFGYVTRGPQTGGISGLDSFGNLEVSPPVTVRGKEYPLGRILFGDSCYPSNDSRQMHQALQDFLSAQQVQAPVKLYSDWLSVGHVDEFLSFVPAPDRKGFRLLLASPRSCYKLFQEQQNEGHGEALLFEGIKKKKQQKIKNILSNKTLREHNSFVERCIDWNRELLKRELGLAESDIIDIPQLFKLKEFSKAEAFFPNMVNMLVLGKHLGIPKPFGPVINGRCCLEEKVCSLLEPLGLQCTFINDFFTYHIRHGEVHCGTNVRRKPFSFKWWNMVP
row,Compound,IC50 [nM]
1,"COc1cc(C(=O)N2C[C@H](N)CCN2C)cc2nc(-c3cc4ccc([C@@H](C)NC(=O)C5(CCF)CC5)nc4n3CC3CC3)n(C)c12 [Example 215, N-((R)-1-(2-(5-((R)-5-amino-2-methylhexahydropyridazine-1-carbonyl)-7-methoxy-1-methyl-1H-benzo[d]imidazol-2-yl)-1-(cyclopropylmethyl)-1H-pyrrolo[2,3-b]pyridin-6-yl)ethyl)-1-(2-fluoroethyl)cyclopropane-1-carboxamide]",111
2,"C[C@@H](NC(=O)C(C)(C)C)c1ccc2cc(-c3nc4cc(C(=O)N[C@H]5CNCC[C@@H]5F)c(F)cc4n3C)n(CC3CC3)c2n1 [Example 216, 2-(1-(cyclopropylmethyl)-6-((R)-1-pivalamidoethyl)-1H-pyrrolo[2,3-b]pyridin-2-yl)-6-fluoro-N-((3S,4S)-4-fluoropiperidin-3-yl)-1-methyl-1H-benzo[d]imidazole-5-carboxamide]",158
3,"COc1cc(C(=O)N2C[C@H](N)[C@@H]3CC[C@H]2C3)cc2nc(-c3cc4ccc([C@@H](C)NC(=O)[C@H]5CC5(F)F)nc4n3CC3CC3)n(C)c12 [Example 220, (R)-N-((R)-1-(2-(5-((1S,4R,5R)-4-amino-2-azabicyclo[3.2.1]octane-2-carbonyl)-7-methoxy-1-methyl-1H-benzo[d]imidazol-2-yl)-1-(cyclopropylmethyl)-1H-pyrrolo[2,3-b]pyridin-6-yl)ethyl)-2,2-difluorocyclopropane-1-carboxamide]",54.9
4,"COc1cc(C(=O)N2C[C@H](N)[C@@H]3CC[C@H]2C3)cc2nc(-c3cc4ccc([C@@H](C)NC(=O)C(C)(C)C)nc4n3CC3CC3)n(C)c12 [Example 221, N-((R)-1-(2-(5-((1S,4R,5R)-4-amino-2-azabicyclo[3.2.1]octane-2-carbonyl)-7-methoxy-1-methyl-1H-benzo[d]imidazol-2-yl)-1-(cyclopropylmethyl)-1H-pyrrolo[2,3-b]pyridin-6-yl)ethyl)pivalamide]",61
5,"COc1cc(C(=O)N2C[C@H](N)[C@@H]3CC[C@H]2C3)cc2nc(-c3cc4ccc([C@@H](C)NC(=O)c5ccccc5)nc4n3CC3CC3)n(C)c12 [Example 222, N-((R)-1-(2-(5-((1S,4R,5R)-4-amino-2-azabicyclo[3.2.1]octane-2-carbonyl)-7-methoxy-1-methyl-1H-benzo[d]imidazol-2-yl)-1-(cyclopropylmethyl)-1H-pyrrolo[2,3-b]pyridin-6-yl)ethyl)benzamide]",53.5
6,"COc1cc(C(=O)N2C[C@H](N)[C@@H]3CC[C@H]2C3)cc2nc(-c3cc4ccc([C@@H](C)NC(=O)C56CC(F)(C5)C6)nc4n3CC3CC3)n(C)c12 [Example 223, N-[(1R)-1-[2-[5-[(1S,4R,5R)-4-amino-2-azabicyclo[3.2.1]octane-2-carbonyl]-7-methoxy-1-methyl-benzimidazol-2-yl]-1-(cyclopropylmethyl)pyrrolo[2,3-b]pyridin-6-yl]ethyl]-3-fluorobicyclo[1.1.1]pentane-1-carboxamide]",57.2
7,"COc1cc(C(=O)N2C[C@H](N)[C@@H]3CC[C@H]2C3)cc2nc(-c3cc4ccc([C@@H](C)NC(=O)c5cnn(C(F)F)c5)nc4n3CC3CC3)n(C)c12 [Example 224, N-((R)-1-(2-(5-((1S,4R,5R)-4-amino-2-azabicycIo[3.2.1]octane-2-carbonyl)-7-methoxy-1-methyl-1H-benzo[d]imidazol-2-yl)-1-(cyclopropylmethyl)-1H-pyrrolo[2,3-b]pyridin-6-yl)ethyl)-1-(difluoromethyl)-1H-pyrazole-4-carboxamide]",48.1
8,"COc1cc(C(=O)N2C[C@H](N)[C@@H]3CC[C@H]2C3)cc2nc(-c3cc4ccc([C@@H](C)NC(=O)c5ccc(Cl)nc5)nc4n3CC3CC3)n(C)c12 [Example 225, N-((R)-1-(2-(5-((1S,4R,5R)-4-amino-2-azabicyclo[3.2.1]octane-2-carbonyl)-7-methoxy-1-methyl-1H-benzo[d]imidazol-2-yl)-1-(cyclopropylmethyl)-1H-pyrrolo[2,3-b]pyridin-6-yl)ethyl)-6-chloronicotinamide]",48.1
9,"C[C@@H](NC(=O)[C@@H]1CC1(F)F)c1ccc2cc(-c3nc4cc(C(=O)N5C[C@H](N)[C@@H]6CC[C@H]5C6)cc(F)c4n3C3CC3)n(CC3CC3)c2n1 [Example 226, (S)-N-((R)-1-(2-(5-((1S,4R,5R)-4-amino-2-azabicyclo[3.2.1]octane-2-carbonyl)-1-cyclopropyl-7-fluoro-1H-benzo[d]imidazol-2-yl)-1-(cyclopropylmethyl)-1H-pyrrolo[2,3-b]pyridin-6-yl)ethyl)-2,2-difluorocyclopropane-1-carboxamide]",53.2
10,"C[C@@H](NC(=O)[C@H]1CC1(F)F)c1ccc2cc(-c3nc4cc(C(=O)N5C[C@H](N)[C@@H]6CC[C@H]5C6)cc(F)c4n3C3CC3)n(CC3CC3)c2n1 [Example 227, (R)-N-((R)-1-(2-(5-((1S,4R,5R)-4-amino-2-azabicyclo[3.2.1]octane-2-carbonyl)-1-cyclopropyl-7-fluoro-1H-benzo[d]imidazol-2-yl)-1-(cyclopropylmethyl)-1H-pyrrolo[2,3-b]pyridin-6-yl)ethyl)-2,2-difluorocyclopropane-1-carboxamide]",46.8
11,"COc1cc(C(=O)N2C[C@H](N)[C@@H]3CC[C@H]2C3)cc2nc(-c3cc4ccc([C@@H](C)NC(=O)C5CC(F)(F)C5)nc4n3CC3CC3)n(C)c12 [Example 228, N-((R)-1-(2-(5-((1S,4R,5R)-4-amino-2-azabicyclo[3.2.1]octane-2-carbonyl)-7-methoxy-1-methyl-1H-benzo[d]imidazol-2-yl)-1-(cyclopropylmethyl)-1H-pyrrolo[2,3-b]pyridin-6-yl)ethyl)-3,3-difluorocyclobutane-1-carboxamide]",82.3
12,"COc1cc(C(=O)N2C[C@H](N)[C@@H]3CC[C@H]2C3)cc2nc(-c3cc4ccc([C@@H](C)NC(=O)C56CC(Cl)(C5)C6)nc4n3CC3CC3)n(C)c12 [Example 229, N-((R)-1-(2-(5-((1S,4R,5R)-4-amino-2-azabicyclo[3.2.1]octane-2-carbonyl)-7-methoxy-1-methyl-1H-benzo[d]imidazol-2-yl)-1-(cyclopropylmethyl)-1H-pyrrolo[2,3-b]pyridin-6-yl)ethyl)-3-chlorobicyclo[1.1.1]pentane-1-carboxamide]",83.3
13,"COc1cc(C(=O)N2C[C@H](N)[C@@H]3CC[C@H]2C3)cc2nc(-c3cc4ccc([C@@H](C)NC(=O)C56CC(C(F)(F)F)(C5)C6)nc4n3CC3CC3)n(C)c12 [Example 230, N-((R)-1-(2-(5-((1S,4R,5R)-4-amino-2-azabicyclo[3.2.1]octane-2-carbonyl)-7-methoxy-1-methyl-1H-benzo[d]imidazol-2-yl)-1-(cyclopropylmethyl)-1H-pyrrolo[2,3-b]pyridin-6-yl)ethyl)-3-(trifluoromethyl)bicyclo[1.1.1] pentane-1-carboxamide]",127
14,"COc1cc(C(=O)N2[C@H]3CC[C@@H]2[C@H](N)C3)cc2nc(-c3cc4ccc([C@@H](C)NC(=O)N5CCCC5)nc4n3CC3CC3)n(C)c12 [Example 234, N-((R)-1-(2-(5-((1R,2R,4S)-2-amino-7-azabicyclo[2.2.1]heptane-7-carbonyl)-7-methoxy-1-methyl-1H-benzo[d]imidazol-2-yl)-1-(cyclopropylmethyl)-1H-pyrrolo[2,3-b]pyridin-6-yl)ethyl)pyrrolidine-1-carboxamide]",34.3
15,"COc1cc(C(=O)N2[C@H]3CC[C@@H]2[C@H](N)C3)cc2nc(-c3cc4ccc([C@@H](C)NC(=O)N(C)C)nc4n3CC3CC3)n(C)c12 [Example 235, 3-((R)-1-(2-(5-((1R,2R,4S)-2-amino-7-azabicyclo[2.2.1]heptane-7-carbonyl)-7-methoxy-1-methyl-1H-benzo[d]imidazol-2-yl)-1-(cyclopropylmethyl)-1H-pyrrolo[2,3-b]pyridin-6-yl)ethyl)-1,1-dimethylurea]",40.2

# Same assay, conditions: recombinant PAD4 5 nM, 2 mM calcium chloride, 3 mM BAEE substrate; geometric mean of multiple experiments
row,Compound,IC50 [nM]
1,"C[C@@H](NC(=O)C12CC(F)(C1)C2)c1ccc2cc(-c3nc4cc(C(=O)N5C[C@H](N)[C@@H]6CC[C@H]5C6)cc(F)c4n3C3CC3)n(CC3CC3)c2n1 [Example 219, N-((R)-1-(2-(5-((1S,4R,5R)-4-amino-2-azabicyclo[3.2.1]octane-2-carbonyl)-1-cyclopropyl-7-fluoro-1H-benzo[d]imidazol-2-yl)-1-(cyclopropylmethyl)-1H-pyrrolo[2,3-b]pyridin-6-yl)ethyl)-3-fluorobicyclo[1.1.1]pentane-1-carboxamide]",78.6
2,"C[C@@H](NC(=O)c1cnn(C2CC2)c1)c1ccc2cc(-c3nc4cc(C(=O)N5C[C@H](N)[C@@H]6CC[C@H]5C6)cc(F)c4n3C3CC3)n(CC3CC3)c2n1 [Example 231, N-((R)-1-(2-(5-((1S,4R,5R)-4-amino-2-azabicyclo[3.2.1]octane-2-carbonyl)-1-cyclopropyl-7-fluoro-1H-benzo[d]imidazol-2-yl)-1-(cyclopropylmethyl)-1H-pyrrolo[2,3-b]pyridin-6-yl)ethyl)-1-cyclopropyl-1H-pyrazole-4-carboxamide]",55.9
3,"C[C@@H](NS(=O)(=O)C1CC1)c1ccc2cc(-c3nc4cc(C(=O)N5C[C@H](N)[C@@H]6CC[C@H]5C6)cc(F)c4n3C3CC3)n(CC3CC3)c2n1 [Example 232, N-((R)-1-(2-(5-((1S,4R,5R)-4-amino-2-azabicyclo[3.2.1]octane-2-carbonyl)-1-cyclopropyl-7-fluoro-1H-benzo[d]imidazol-2-yl)-1-(cyclopropyImethyl)-1H-pyrrolo[2,3-b]pyridin-6-yl)ethyl)cyclopropanesulfonamide]",89.8
4,"C[C@@H](NC(=O)C12CC(C#N)(C1)C2)c1ccc2cc(-c3nc4cc(C(=O)N5C[C@H](N)[C@@H]6CC[C@H]5C6)cc(F)c4n3C3CC3)n(CC3CC3)c2n1 [Example 233, N-((R)-1-(2-(5-((1S,4R,5R)-4-amino-2-azabicyclo[3.2.1]octane-2-carbonyl)-1-cyclopropyl-7-fluoro-1H-benzo[d]imidazol-2-yl)-1-(cyclopropylmethyl)-1H-pyrrolo[2,3-b]pyridin-6-yl)ethyl)-3-cyanobicyclo[1.1.1]pentane-1-carboxamide]",78.2
